# How the values were obtained:
# [1] = molecular target: Fibroblast growth factor receptor 2 (Homo sapiens) (UniProt P21802); assay: Residual activity of FGFR2 at 10 uM by microplate scintillation counting
# [2] = molecular target: Tyrosine-protein kinase CSK (Homo sapiens) (UniProt P41240); assay: Residual activity of CSK at 0.1 uM by microplate scintillation counting
# [3] = molecular target: Proto-oncogene tyrosine-protein kinase ROS (Homo sapiens) (UniProt P08922); assay: Residual activity of ROS at 1 uM by microplate scintillation counting
# [4] = molecular target: Protein kinase C theta type (Homo sapiens) (UniProt Q04759); assay: Residual activity of PKCtheta at 0.1 uM by microplate scintillation counting
# [5] = molecular target: Tyrosine-protein kinase JAK2 (Homo sapiens) (UniProt O60674); assay: Residual activity of JAK2 at 10 uM by microplate scintillation counting
# [6] = molecular target: Protein-tyrosine kinase 2-beta (Homo sapiens) (UniProt Q14289); assay: Residual activity of PYK2 at 1 uM by microplate scintillation counting
# [7] = molecular target: Ephrin type-A receptor 5 (Homo sapiens) (UniProt P54756); assay: Residual activity of EPHA5 at 0.1 uM by microplate scintillation counting
# [8] = molecular target: Receptor-interacting serine/threonine-protein kinase 2 (Homo sapiens) (UniProt O43353); assay: Residual activity of RIPK2 at 0.1 uM by microplate scintillation counting
# [9] = molecular target: Epidermal growth factor receptor (Homo sapiens, UniProt P00533); assay: Residual activity of wild type EGF-R at 10 uM by microplate scintillation counting
# [10] = molecular target: Cyclin-dependent kinase 2/cyclin A (Homo sapiens) (UniProt P24941+P20248+P78396); assay: Residual activity of CDK2/Cyclin A at 10 uM by microplate scintillation counting; type: protein-complex assay
# [11] = molecular target: Ephrin type-A receptor 2 (Homo sapiens) (UniProt P29317); assay: Residual activity of EPHA2 at 1 uM by microplate scintillation counting
# [12] = molecular target: Myosin light chain kinase 2, skeletal/cardiac muscle (Homo sapiens) (UniProt Q9H1R3); assay: Residual activity of MYLK2 at 10 uM by microplate scintillation counting
# [13] = molecular target: Mitogen-activated protein kinase kinase kinase 14 (Homo sapiens) (UniProt Q99558); assay: Residual activity of NIK at 0.1 uM by microplate scintillation counting
# [14] = molecular target: Fibroblast growth factor receptor 2 (Homo sapiens) (UniProt P21802); assay: Residual activity of FGFR2 at 1 uM by microplate scintillation counting
# [15] = molecular target: T1, Serine/threonine-protein kinase 17A (Homo sapiens) (UniProt Q9UEE5); assay: Residual activity of STK17A at 0.1 uM by microplate scintillation counting
# T1 sequence (whole entry): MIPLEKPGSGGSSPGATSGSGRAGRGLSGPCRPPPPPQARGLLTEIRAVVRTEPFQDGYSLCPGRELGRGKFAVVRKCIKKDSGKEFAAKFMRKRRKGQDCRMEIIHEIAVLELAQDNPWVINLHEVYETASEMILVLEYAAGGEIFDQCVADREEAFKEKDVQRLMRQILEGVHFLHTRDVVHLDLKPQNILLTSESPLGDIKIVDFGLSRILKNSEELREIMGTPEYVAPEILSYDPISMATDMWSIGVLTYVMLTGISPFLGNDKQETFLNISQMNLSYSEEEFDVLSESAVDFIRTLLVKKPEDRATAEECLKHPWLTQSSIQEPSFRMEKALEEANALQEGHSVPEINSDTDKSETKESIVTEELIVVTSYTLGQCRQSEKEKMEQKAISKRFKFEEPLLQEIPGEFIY
# [16] = molecular target: Casein kinase I isoform gamma-3 (Homo sapiens) (UniProt Q9Y6M4); assay: Residual activity of CK1gamma3 at 1 uM by microplate scintillation counting
# [17] = molecular target: T2, NUAK family SNF1-like kinase 2 (Homo sapiens) (UniProt Q9H093); assay: Residual activity of SNARK at 10 uM by microplate scintillation counting
# T2 sequence (whole entry): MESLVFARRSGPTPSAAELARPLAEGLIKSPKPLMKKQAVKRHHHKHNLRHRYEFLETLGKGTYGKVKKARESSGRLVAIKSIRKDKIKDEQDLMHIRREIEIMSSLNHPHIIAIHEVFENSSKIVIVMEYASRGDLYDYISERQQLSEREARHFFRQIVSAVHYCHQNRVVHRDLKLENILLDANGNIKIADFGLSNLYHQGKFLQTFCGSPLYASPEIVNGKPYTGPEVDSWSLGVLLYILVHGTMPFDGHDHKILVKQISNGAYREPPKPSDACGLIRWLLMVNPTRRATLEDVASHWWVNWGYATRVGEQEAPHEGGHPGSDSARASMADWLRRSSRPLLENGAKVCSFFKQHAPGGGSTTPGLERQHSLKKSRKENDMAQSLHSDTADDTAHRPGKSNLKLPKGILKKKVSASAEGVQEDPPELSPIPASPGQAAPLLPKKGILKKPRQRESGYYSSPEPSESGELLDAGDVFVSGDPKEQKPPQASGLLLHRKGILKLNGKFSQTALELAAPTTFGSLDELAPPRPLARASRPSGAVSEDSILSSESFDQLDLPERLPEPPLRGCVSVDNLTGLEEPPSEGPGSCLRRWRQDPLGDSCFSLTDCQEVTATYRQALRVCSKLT
# [18] = molecular target: RAC-alpha serine/threonine-protein kinase (Homo sapiens) (UniProt P31749); assay: Residual activity of AKT1 at 10 uM by microplate scintillation counting
# [19] = molecular target: T3, Serine/threonine-protein kinase 3 (Homo sapiens) (UniProt Q13188); assay: Residual activity of MST2 at 1 uM by microplate scintillation counting
# T3 sequence (whole entry): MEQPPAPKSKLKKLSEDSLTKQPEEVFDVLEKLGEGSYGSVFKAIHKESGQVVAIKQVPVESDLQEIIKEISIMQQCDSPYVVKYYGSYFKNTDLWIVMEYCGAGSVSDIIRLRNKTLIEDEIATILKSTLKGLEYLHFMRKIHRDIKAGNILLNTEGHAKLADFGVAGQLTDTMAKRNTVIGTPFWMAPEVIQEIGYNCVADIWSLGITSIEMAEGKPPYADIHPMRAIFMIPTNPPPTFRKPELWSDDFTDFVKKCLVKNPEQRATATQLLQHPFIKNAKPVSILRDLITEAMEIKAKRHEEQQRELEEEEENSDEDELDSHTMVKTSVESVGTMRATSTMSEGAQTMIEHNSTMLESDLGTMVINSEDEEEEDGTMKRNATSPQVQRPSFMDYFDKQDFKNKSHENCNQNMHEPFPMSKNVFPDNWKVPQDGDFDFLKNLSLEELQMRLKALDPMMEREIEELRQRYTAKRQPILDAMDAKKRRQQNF
# [20] = test system: RAF proto-oncogene serine/threonine-protein kinase (Homo sapiens), P04049 [Y340D,Y341D]; assay: Residual activity of RAF1 Y340D/Y341D mutant at 0.1 uM by microplate scintillation counting
# [21] = molecular target: SRSF protein kinase 3 (Homo sapiens) (UniProt Q9UPE1); assay: Residual activity of STK23 at 10 uM by microplate scintillation counting
# Sequence of Ephrin type-A receptor 5 (Homo sapiens) (P54756 whole entry): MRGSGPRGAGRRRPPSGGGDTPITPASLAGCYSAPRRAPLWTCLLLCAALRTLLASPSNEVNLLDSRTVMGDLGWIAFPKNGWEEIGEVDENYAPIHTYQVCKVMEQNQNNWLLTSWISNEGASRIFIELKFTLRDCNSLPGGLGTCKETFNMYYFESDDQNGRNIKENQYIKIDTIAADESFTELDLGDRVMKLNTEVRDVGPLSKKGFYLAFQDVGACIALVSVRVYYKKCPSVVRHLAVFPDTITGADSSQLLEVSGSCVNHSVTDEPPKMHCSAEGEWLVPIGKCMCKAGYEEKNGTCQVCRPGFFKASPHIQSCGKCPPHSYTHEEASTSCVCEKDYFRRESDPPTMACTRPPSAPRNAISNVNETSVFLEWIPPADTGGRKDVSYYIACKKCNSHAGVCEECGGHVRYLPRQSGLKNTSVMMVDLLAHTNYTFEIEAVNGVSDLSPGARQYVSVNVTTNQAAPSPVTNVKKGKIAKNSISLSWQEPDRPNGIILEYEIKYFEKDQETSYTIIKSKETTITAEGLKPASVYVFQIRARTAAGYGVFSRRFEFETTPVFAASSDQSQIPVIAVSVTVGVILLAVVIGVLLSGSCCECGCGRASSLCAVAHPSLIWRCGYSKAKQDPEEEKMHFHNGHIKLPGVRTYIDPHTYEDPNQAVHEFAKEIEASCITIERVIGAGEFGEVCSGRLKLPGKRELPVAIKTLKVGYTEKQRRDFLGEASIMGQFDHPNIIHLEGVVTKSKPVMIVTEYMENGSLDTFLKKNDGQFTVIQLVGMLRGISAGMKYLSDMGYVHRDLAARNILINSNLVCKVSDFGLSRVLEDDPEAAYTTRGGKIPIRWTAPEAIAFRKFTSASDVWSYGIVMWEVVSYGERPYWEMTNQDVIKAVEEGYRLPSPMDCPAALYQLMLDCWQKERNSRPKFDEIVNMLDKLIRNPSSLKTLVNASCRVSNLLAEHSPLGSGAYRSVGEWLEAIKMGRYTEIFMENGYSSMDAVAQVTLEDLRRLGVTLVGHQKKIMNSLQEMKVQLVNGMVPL
# Sequence of Proto-oncogene tyrosine-protein kinase ROS (Homo sapiens) (P08922 whole entry): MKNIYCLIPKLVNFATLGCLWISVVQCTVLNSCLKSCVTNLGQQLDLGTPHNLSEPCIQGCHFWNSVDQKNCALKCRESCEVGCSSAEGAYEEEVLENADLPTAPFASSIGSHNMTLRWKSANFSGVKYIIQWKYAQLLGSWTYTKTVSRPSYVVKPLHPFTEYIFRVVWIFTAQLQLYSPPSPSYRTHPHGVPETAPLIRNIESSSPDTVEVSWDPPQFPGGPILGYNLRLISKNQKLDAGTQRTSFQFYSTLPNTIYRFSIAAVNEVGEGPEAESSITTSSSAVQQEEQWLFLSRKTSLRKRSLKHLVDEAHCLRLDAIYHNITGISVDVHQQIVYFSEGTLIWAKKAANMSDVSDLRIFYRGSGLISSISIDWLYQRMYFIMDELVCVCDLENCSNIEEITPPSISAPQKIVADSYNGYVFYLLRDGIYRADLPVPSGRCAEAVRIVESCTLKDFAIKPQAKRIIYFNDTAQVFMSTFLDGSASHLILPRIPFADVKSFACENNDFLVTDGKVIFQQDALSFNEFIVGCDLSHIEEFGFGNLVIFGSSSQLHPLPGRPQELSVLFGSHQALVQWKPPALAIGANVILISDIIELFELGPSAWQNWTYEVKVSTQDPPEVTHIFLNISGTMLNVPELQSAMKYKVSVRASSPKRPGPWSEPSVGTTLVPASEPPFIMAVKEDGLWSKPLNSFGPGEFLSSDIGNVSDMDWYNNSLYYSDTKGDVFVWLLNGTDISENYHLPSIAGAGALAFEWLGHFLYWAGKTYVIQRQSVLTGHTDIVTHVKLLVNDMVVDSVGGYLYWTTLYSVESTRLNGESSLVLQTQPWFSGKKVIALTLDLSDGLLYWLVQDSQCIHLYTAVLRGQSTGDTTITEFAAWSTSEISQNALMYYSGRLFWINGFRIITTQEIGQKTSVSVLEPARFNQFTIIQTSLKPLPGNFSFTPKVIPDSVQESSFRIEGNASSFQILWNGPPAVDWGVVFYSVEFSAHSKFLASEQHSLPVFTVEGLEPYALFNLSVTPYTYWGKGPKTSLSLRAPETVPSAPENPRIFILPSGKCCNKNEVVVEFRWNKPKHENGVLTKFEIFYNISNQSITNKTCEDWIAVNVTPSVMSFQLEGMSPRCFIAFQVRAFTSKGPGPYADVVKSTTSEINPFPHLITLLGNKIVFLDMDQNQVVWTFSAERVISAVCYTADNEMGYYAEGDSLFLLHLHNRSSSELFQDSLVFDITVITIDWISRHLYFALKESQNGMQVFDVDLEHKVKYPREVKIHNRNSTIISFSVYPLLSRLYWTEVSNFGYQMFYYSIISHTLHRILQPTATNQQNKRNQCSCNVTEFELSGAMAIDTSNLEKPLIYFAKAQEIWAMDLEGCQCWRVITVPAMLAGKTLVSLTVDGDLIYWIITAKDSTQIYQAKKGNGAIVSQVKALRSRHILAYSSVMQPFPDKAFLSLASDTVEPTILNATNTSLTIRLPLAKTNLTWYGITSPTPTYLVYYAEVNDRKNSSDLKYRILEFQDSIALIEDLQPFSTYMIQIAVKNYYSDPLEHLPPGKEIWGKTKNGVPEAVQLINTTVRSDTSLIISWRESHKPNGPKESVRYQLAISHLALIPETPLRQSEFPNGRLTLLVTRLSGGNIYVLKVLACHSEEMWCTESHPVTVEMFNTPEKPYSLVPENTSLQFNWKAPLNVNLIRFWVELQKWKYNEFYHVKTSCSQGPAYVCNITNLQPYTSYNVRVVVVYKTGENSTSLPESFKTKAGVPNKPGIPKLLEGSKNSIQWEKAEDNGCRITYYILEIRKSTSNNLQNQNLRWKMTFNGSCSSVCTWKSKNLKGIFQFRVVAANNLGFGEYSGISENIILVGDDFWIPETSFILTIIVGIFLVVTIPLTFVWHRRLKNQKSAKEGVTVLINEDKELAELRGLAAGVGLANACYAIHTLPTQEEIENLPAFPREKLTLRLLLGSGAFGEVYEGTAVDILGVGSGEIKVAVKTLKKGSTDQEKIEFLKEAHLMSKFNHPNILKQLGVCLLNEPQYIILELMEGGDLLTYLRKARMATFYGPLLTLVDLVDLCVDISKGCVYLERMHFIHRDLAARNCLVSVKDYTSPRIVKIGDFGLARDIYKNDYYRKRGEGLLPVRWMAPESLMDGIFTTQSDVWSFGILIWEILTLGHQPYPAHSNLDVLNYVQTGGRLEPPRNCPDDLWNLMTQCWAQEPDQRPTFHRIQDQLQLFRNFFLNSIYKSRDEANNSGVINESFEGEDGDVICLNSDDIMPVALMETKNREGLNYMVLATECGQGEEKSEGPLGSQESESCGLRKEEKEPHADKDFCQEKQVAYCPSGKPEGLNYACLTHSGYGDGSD
# Sequence of RAC-alpha serine/threonine-protein kinase (Homo sapiens) (P31749 whole entry): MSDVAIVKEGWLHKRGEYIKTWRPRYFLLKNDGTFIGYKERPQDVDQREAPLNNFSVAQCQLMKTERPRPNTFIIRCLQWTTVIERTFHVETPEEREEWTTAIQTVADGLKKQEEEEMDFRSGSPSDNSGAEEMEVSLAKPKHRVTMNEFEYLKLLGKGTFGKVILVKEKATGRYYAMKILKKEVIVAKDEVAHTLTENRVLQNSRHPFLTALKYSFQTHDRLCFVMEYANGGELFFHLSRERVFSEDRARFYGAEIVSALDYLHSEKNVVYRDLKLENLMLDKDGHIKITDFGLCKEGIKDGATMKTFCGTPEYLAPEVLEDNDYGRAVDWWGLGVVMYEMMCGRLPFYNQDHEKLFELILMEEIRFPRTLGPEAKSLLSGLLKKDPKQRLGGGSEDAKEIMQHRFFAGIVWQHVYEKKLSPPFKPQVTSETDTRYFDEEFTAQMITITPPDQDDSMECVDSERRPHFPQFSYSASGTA
# Sequence of Tyrosine-protein kinase CSK (Homo sapiens) (P41240 2-450 limits assumed): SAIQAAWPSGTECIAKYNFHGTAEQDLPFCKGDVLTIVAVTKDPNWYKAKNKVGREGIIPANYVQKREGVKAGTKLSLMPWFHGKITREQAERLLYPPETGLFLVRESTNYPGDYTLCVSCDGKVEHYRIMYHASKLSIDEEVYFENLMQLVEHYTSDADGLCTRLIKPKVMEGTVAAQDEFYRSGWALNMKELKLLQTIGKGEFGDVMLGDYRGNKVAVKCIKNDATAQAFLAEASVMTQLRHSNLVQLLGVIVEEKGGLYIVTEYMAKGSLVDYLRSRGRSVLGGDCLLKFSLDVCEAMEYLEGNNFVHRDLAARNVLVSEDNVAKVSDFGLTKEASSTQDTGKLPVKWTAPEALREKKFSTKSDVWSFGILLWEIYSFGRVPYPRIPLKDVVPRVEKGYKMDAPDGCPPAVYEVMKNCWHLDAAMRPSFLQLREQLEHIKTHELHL
# Sequence of Protein kinase C theta type (Homo sapiens) (Q04759 whole entry, looked up): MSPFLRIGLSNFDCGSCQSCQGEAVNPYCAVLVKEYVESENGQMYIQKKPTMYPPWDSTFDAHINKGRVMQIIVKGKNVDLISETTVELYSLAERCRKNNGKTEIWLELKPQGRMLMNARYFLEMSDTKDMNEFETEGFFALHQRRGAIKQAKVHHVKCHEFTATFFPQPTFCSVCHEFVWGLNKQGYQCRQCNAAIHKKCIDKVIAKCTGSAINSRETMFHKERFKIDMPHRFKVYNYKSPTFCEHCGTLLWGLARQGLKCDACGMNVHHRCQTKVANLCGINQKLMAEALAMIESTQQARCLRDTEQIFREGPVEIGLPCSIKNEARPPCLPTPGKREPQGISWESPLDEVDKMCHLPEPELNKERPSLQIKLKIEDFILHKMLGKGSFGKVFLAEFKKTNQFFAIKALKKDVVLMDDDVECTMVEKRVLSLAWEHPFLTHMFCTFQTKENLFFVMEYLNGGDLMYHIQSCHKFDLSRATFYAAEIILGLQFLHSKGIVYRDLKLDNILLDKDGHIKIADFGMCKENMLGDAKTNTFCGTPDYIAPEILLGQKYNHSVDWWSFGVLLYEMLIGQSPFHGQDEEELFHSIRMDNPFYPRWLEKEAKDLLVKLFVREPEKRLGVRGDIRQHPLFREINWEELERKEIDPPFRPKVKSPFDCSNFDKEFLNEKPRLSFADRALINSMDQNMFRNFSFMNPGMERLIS
Structure (SMILES),residual activity [1] [%],residual activity [2] [%],residual activity [3] [%],residual activity [4] [%],residual activity [5] [%],residual activity [6] [%],residual activity [7] [%],residual activity [8] [%],residual activity [9] [%],residual activity [10] [%],residual activity [11] [%],residual activity [12] [%],residual activity [13] [%],residual activity [14] [%],residual activity [15] [%],residual activity [16] [%],residual activity [17] [%],residual activity [18] [%],residual activity [19] [%],residual activity [20] [%],also measured
COc1cc2c(Oc3ccc(-c4nc5ccccc5s4)cc3F)ncnc2cc1OCCCN1CCN(C)CC1,86,104,102,95,60,105,97,72,48,73,109,117,86,120,87,92,62,105,86,100,residual activity [21]: 111%
COc1cc2c(Oc3ccc(-c4nc5ccccc5s4)cc3)ncnc2cc1OCCCN1CCCC1,113,111,98,95,67,109,103,79,67,79,97,82,87,107,66,88,82,87,66,95,residual activity [21]: 113%
COc1cc2c(Oc3ccc(-c4nc5ccccc5s4)cc3)ncnc2cc1OCCCN1CCN(C)CC1,136,120,97,100,67,97,81,78,52,84,111,115,86,111,66,83,92,120,67,114,residual activity [21]: 110%

# From ChEMBL document CHEMBL1152560, “Substituted 2-arylbenzothiazoles as kinase inhibitors: hit-to-lead optimization” (Bioorg Med Chem, 2009)
